The text below walks through data of patent US8715920B2, “Composition for preserving platelets during photosensitization” (Biovec Transfusion, LLC, priority 2010, dated 2014).

A short description of data set [1]: Photodegradation upon exposure to ultraviolet light by HPLC analysis. The following applies: for relative stabilities: assuming the dosage codes were equivalent.
For data set [2] the following is noted: more sensitive to the αPTT; cited from earlier work.

“Also recorded” adds a separate entry of the source. Positions of bridges follow the written chain, without caps; N, C: chain ends. Non-standard residues stand in square brackets, D forms with d. Residues, ends and D or L forms follow the SMILES beside them. hArg = N=C(N)NCCCC[C@H](N)C(=O)O; Mpa = O=C(O)CCS

Turning to `N=C(N)NCCCC[C@@H]1NC(=O)CCSSC[C@@H](C(N)=O)NC(=O)[C@@H]2CCCN2C(=O)[C@H](Cc2c[nH]c3ccccc23)NC(=O)[C@H](CC(=O)O)NC(=O)CNC1=O` [Eptifibatide] ([Mpa][hArg]GDWPC-NH2; disulfide 1-7), the relative stabilities entry in data set [1] (UV282) is recorded as “Argatroban>Tirofiban>>Eptifibatide”; in data set [1] (UV308) it was “Tirofiban>>Argatroban>>Eptifibatide”. Besides, the “photodegradation profile, in words” value in data set [1] (UV 282 nm) is reported as “faster photodegradation profile than the other compounds tested”. In addition, the “HPLC peak relative to unexposed control” value in data set [1] (UV 282 nm, exposure A) is recorded as 47.0%; in data set [1] (UV 282 nm, remainder of the exposures (after exposure A)), “below the LLOD”. The “photodegradation, in words” value in data set [1] (UV 308 nm) is on record as “substantial photodegradation, but to a lesser extent than at UV282”.
With `COc1ccc2ccc(S(=O)(=O)N(C)[C@H]3CCN(Cc4csc(C(=N)N)c4)C3=O)cc2c1` [RPR-120844], the “effect on PT and αPTT” value in data set [2] is “prolongs the PT and αPTT in a concentration-dependent manner”.
On to `CCCCS(=O)(=O)N[C@@H](Cc1ccc(OCCCCC2CCNCC2)cc1)C(=O)O` [Tirofiban], for which the “HPLC peak relative to unexposed control” value in data set [1] (UV 282 nm, exposure A) is listed as 81.2%; in data set [1] (UV 282 nm, exposure B) it was 59.9%; in data set [1] (UV 282 nm, exposure C), 37.7%; in data set [1] (UV 282 nm, exposure D), 15.4%; in data set [1] (UV 282 nm, exposure F), “below the LLOQ; also recorded: indeterminate”; in data set [1] (UV 308 nm, exposure A) it was 81.2%. For the same compound, the “HPLC peak relative to unexposed control” value in data set [1] (UV 308 nm, exposure B) is given as 76.9%; in data set [1] (UV 308 nm, exposure C), 73.0%.
